# Assay results as given in PMC5867678 (Journal of Medicinal Chemistry, 2018).
# “Also recorded” adds a separate entry of the source. Where two headings read alike, the source gives them in different places.
# What was measured:
# [1] = Permeability assay in MDCK-MDR1 cells; conditions: dog
# [2] = system: Salmonella typhimurium (TA98 and TA100); assay: Ames test (Mini-Ames reverse mutation screen); format: cell-based; conditions: strains TA98 and TA100, with or without S9
# Description: Two strains of Salmonella typhimurium (TA98 and TA100) were employed, in the presence and absence of metabolic activation (rat liver S9). Positive controls (2-aminoanthracene, 2-nitrofluorene, and sodium azide) and a negative (DMSO solvent) control were included.
# [3] = Mouse pharmacokinetics; conditions: in vivo; for AUC(0-t) / Cmax: female, BALB/c, 40 mg/kg; for AUC(0-t) / Cmax / bioavailability: po; for bioavailability: male
# [4] = Rat pharmacokinetics; set-up: species or system Sprague-Dawley rats; conditions: male, Sprague-Dawley, in vivo, po, 40 mg/kg
# Procedure: All studies were conducted in fasted animals (either male Sprague-Dawley rats or female golden Syrian hamsters) by WuXi AppTec (Shanghai) Co., Ltd. Intravenous dosing (at 1 mg/kg for rats and 2 mg/kg for hamsters) utilized a solution formulation of 20% NMP and 40% PEG-400 in citrate buffer (pH 3). In rats, oral dosing (at 40–50 mg/kg) was as a suspension in 0.08% Tween 80 and 0.5% CMC in water, whereas PEG-400 was the vehicle employed for oral dosing in hamsters (at 40–50 mg/kg). Plasma samples (at 0.083 for iv only, 0.25, 0.5, 1, 2, 4, 8, and 24 h) were analyzed by LC–MS/MS, and the PK parameters were calculated using Phoenix WinNonlin software (version 6.3).
# [5] = Microsomal stability, human liver microsomes; format: in vitro ADME; conditions: pooled human liver microsomes; for remaining at 0.5 h, 0.5 μM: 30 min (data in parentheses)
# [6] = Hamster pharmacokinetics; set-up: species or system golden Syrian hamsters; conditions: female, golden Syrian, in vivo, po
# [7] = Microsomal stability, CD-1 mouse liver microsomes; format: in vitro ADME; conditions: for remaining at 0.5 h, 0.5 μM: 30 min (data in parentheses)
# [8] = human, in vivo; cited from earlier work
# [9] = system: Caco-2; set-up: method as in PMID 25261338; conditions: Caco-2 data; cited from earlier work
# [10] = cited from earlier work
# [11] = system: Salmonella typhimurium (TA98 and TA100); conditions: cited from earlier work
smiles,measurement,setting,value
"O=[N+]([O-])c1cn2c(n1)OC[C@H](Oc1ccc(OC(F)(F)F)cc1)C2 [R-6, (6R)-2-Nitro-6-[4-(trifluoromethoxy)phenoxy]-6,7-dihydro-5H-imidazo[2,1-b][1,3]oxazine]","Papp A→B at […], 2 µM",[1],32.4 ×10⁻⁶ cm/s
same,mutagenic effect (Ames test),[2],negative; also recorded: no ^d
same,AUC(0-t),[3],272 µg·h/mL
same,Cmax,[3],21000 ng/mL
same,AUC(0-t),[4],80.6 µg·h/mL
same,Cmax,[4],5200 ng/mL
O=[N+]([O-])c1cn2c(n1)OC[C@H](OCc1ccc(-c3ccc(OC(F)(F)F)cc3)cn1)C2 [R-84],AUC(0-t),[3],211 µg·h/mL
same,Cmax,[3],16000 ng/mL
O=[N+]([O-])c1cn2c(n1)OC[C@H](OCc1ccc(-c3ccc(OC(F)(F)F)cc3F)cn1)C2 [R-89],AUC(0-t),[3],265 µg·h/mL
same,Cmax,[3],32000 ng/mL
O=[N+]([O-])c1cn2c(n1)OC[C@H](OCc1ccc(-c3ccc(F)cc3F)cn1)C2 [R-96],"remaining at 1 h, 1 μM",[5],57 to 59%
same,bioavailability,[6],21 to 37%
same,"remaining at 1 h, 1 μM",[7],57 to 59%
O=[N+]([O-])c1cn2c(n1)OC[C@H](OCc1ccc(-c3ccc(F)cc3F)nc1)C2 [R-106],bioavailability,[6],21 to 37%
"O=[N+]([O-])c1cn2c(n1)OC[C@H](Oc1ccc(C(F)(F)F)cn1)C2 [R-136, (6R)-2-Nitro-6-{[5-(trifluoromethyl)pyridin-2-yl]oxy}-6,7-dihydro-5H-imidazo[2,1-b][1,3]oxazine]","remaining at 1 h, 1 μM",[5],90 to 92%
same,mutagenic effect (Ames test),[2],positive
same,"remaining at 1 h, 1 μM",[7],90 to 92%
"O=[N+]([O-])c1cn2c(n1)OC[C@@H](OCc1ccc(OC(F)(F)F)cc1)C2 [S-1, (6S)-2-nitro-6-{[4-(trifluoromethoxy)benzyl]oxy}-6,7-dihydro-5H-imidazo[2,1-b][1,3]oxazine]",half-life in clinical trials for TB,[8],16 to 18 h
O=[N+]([O-])c1cn2c(n1)OC[C@@H](OCc1cccc(-c3ccc(OC(F)(F)F)cc3)n1)C2 [S-77],"remaining at 0.5 h, 0.5 μM",[5],> 70%
same,"remaining at 0.5 h, 0.5 μM",[7],> 70%
O=[N+]([O-])c1cn2c(n1)OC[C@@H](OCc1cccc(-c3ccc(F)cc3)n1)C2 [S-81],"remaining at 0.5 h, 0.5 μM",[5],> 70%
same,"remaining at 0.5 h, 0.5 μM",[7],> 70%
O=[N+]([O-])c1cn2c(n1)OC[C@@H](OCc1ccc(-c3ccc(OC(F)(F)F)cc3F)cn1)C2 [S-89],"remaining at 0.5 h, 0.5 μM",[5],> 70%
same,"remaining at 0.5 h, 0.5 μM",[7],> 70%
O=[N+]([O-])c1cn2c(n1)OC[C@@H](OCc1ccc(-c3ccc(OC(F)(F)F)cc3Cl)cn1)C2 [S-91],"remaining at 0.5 h, 0.5 μM",[5],> 70%
same,"remaining at 0.5 h, 0.5 μM",[7],> 70%
O=[N+]([O-])c1cn2c(n1)OC[C@@H](OCc1ccc(-c3ccc(OC(F)F)cc3)cn1)C2 [S-92],"remaining at 0.5 h, 0.5 μM",[5],> 70%
same,"remaining at 0.5 h, 0.5 μM",[7],> 70%
C[C@]1(COc2ccc(OC(F)(F)F)cc2)Cn2cc([N+](=O)[O-])nc2O1 [compound 4],"permeability, Papp A to B",[9],22.6 ×10^–6 cm/s
same,"permeability, Papp B to A",[9],24.7 ×10^–6 cm/s
same,LogD (measured),[10],3.10
same,mutagenic effect (Ames test),[11],no
O=[N+]([O-])c1cn2c(n1)OCC(COc1ccc(OC(F)(F)F)cc1)C2 (stereo not drawn) [compound 24],half-life,"[3]; Swiss albino, iv, 1 mg/kg",2 h
O=[N+]([O-])c1cn2c(n1)OCC(COc1ccc(-c3ccc(OC(F)(F)F)cc3)nc1)C2 (stereo not drawn) [compound 116],bioavailability,[3]; Swiss albino,11 to 15%
O=[N+]([O-])c1cn2c(n1)OCC(COc1ccc(-c3ccc(F)cc3)nc1)C2 (stereo not drawn) [compound 117],bioavailability,[3]; Swiss albino,11 to 15%
CSc1ccc(OCc2ncc([N+](=O)[O-])n2C)cc1 [fexinidazole],Ames test result,[11],positive
